{
  "source": "patent US11807608B2",
  "about": "“Polymerizable compounds with one or more surfactant-like properties” (University of Manitoba, priority 2017, dated 2023)",
  "assay": "Surface tension by Wilhelmy plate (KRUSS K100 Tensiometer, ASTM D1331-14)",
  "type": "physicochemical",
  "description": "A KRUSS K100 Tensiometer was used to determine the surface tension of a sample of the compounds in liquid water at different concentrations. The concentrations tested were 0.5%, 1.0%, 3.0%, 5.0% and 10%. A platinum plate with dimensions of about 19.9 mm×about 0.2 mm×about 10 mm (width, thickness and height respectfully) was attached to a sensitive mass balance. The sample was raised to the fixed platinum plate at a rate of 10 mm/min with a detection sensitivity of 0.005 g until the liquid sample reached the bottom of the plate. The plate was then immersed in the liquid sample at a depth of 2 mm for 60-150 seconds and any change in mass was recorded by the equipment as a function of time. Force was determined using the equation f=ma.\nThe surface tension (γ) of each liquid sample was calculated from the force measurement (f) using the equation outlined in Method C: Surface Tension by Wilhelmy plate, ASTM D1331-14.\n[formula] where (l) is the length and (t) is the thickness of the plate. The contact angle was assumed to be 0. The test results describe a trend and general indication of the surfactant properties of each compound tested.",
  "key": {"[1]": {"settings": "0.5% in water, 150 second measurement"}, "[2]": {"settings": "1.0% in water, 150 second measurement"}, "[3]": {"settings": "3.0% in water, 150 second measurement"}, "[4]": {"settings": "5.0% in water, 150 second measurement"}, "[5]": {"settings": "10.0% in water, 150 second measurement"}},
  "data": [
    {"compound": "C=C(C)C(=O)NCCC[N+](C)(C)CCCCCCCCCC[N+](C)(C)C1CC(C)(C)NC(C)(C)C1.[Br-].[Br-]", "note": "[Formula 5, PIP-C10-C3-methyl, methyl, acrylamide]", "values": [
      {"measurement": "Surface Tension Mean", "setting": "0.5% in water, 60 second measurement", "value": 36.93, "unit": "mN/m"},
      {"measurement": "Surface Tension Mean", "setting": "1.0% in water, 60 second measurement", "value": 32.55, "unit": "mN/m"},
      {"measurement": "Surface Tension Mean", "setting": "3.0% in water, 60 second measurement", "value": 31.23, "unit": "mN/m"},
      {"measurement": "Surface Tension Mean", "setting": "5.0% in water, 60 second measurement", "value": 30.28, "unit": "mN/m"},
      {"measurement": "Surface Tension Mean", "setting": "10.0% in water, 60 second measurement", "value": 29.57, "unit": "mN/m"}
    ]},
    {"compound": "C=C(C)C(=O)OCC[N+](C)(C)CCCCCCCCCC[N+](C)(C)C1CC(C)(C)NC(C)(C)C1.[Br-].[Br-]", "note": "[Formula 6]", "values": [
      {"measurement": "Surface Tension Mean", "setting": "[1]", "value": 47.18, "unit": "mN/m"},
      {"measurement": "Surface Tension Mean", "setting": "[2]", "value": 39.51, "unit": "mN/m"},
      {"measurement": "Surface Tension Mean", "setting": "[3]", "value": 36.93, "unit": "mN/m"},
      {"measurement": "Surface Tension Mean", "setting": "[4]", "value": 35.50, "unit": "mN/m"},
      {"measurement": "Surface Tension Mean", "setting": "[5]", "value": 36.39, "unit": "mN/m"}
    ]},
    {"compound": "C=C(C)C(=O)OCCCCCCCCCCC[N+](C)(C)C1CC(C)(C)NC(C)(C)C1.[Br-]", "note": "[Formula 9]", "values": [
      {"measurement": "Surface Tension Mean", "setting": "[1]", "value": 37.16, "unit": "mN/m"},
      {"measurement": "Surface Tension Mean", "setting": "[2]", "value": 36.19, "unit": "mN/m"},
      {"measurement": "Surface Tension Mean", "setting": "[3]", "value": 35.80, "unit": "mN/m"},
      {"measurement": "Surface Tension Mean", "setting": "[4]", "value": 35.84, "unit": "mN/m"},
      {"measurement": "Surface Tension Mean", "setting": "[5]", "value": 30.44, "unit": "mN/m"}
    ]}
  ]
}
